SMILES strings stand for the structures. Where two headings read alike, the source gives them in different places.

The nature of series [1]: PK protocol (intravenous and oral administration). The format is in vivo, male Sprague Dawley rats. To be noted: male, Sprague Dawley, plasma, rat; for Vd: read-out: Vdss. Here is the method: Pharmacokinetic parameters were determined in male Sprague Dawley rats (Charles River, UK, 250-350 g; or Vital River Laboratory Animal Technology Co Ltd, Beijing, China, 7-9 weeks old). Animals were individually housed during the study and maintained under a 12 h light/dark cycle. Animals had free access to food and water except that some orally dosed animals were food deprived overnight prior to the study. For intravenous administration, compounds were formulated as a solution in water or DMSO:PBS [10:90] in 2 mL/kg dosing volume and administered via tail vein. For oral administration, compounds were formulated as a solution in water or DMSO:water [10:90] in 5 mL/kg dosing volume and administered orally.
Serial blood samples (about 120-300 μL) were taken from each animal at each of 8 time-points post dose (0.083, 0.25, 0.5, 1, 2, 4, 8 and 24 h) or at each of 12 time-points post dose (0.03, 0.1, 0.17, 0.25, 0.5, 1, 2, 4, 6, 8, 12 and 24 h) or pre-dose and at each of 9 time-points post dose (0.25, 0.5, 1, 2, 4, 6, 8, 12 and 24 h). Samples were held on ice for no longer than 30 minutes before centrifugation (10,000 rpm (8,385 g) for 3 minutes; or 5,696 rpm (3,000 g) for 15 minutes) for plasma generation. Plasma was frozen on dry ice prior to bioanalysis. PK parameters were generated from LC-MS/MS data using Dotmatics or Phoenix WinNonlin 6.3 software.

Series [2] has as its target T1, NLRP3 (Homo sapiens, UniProt Q96P20). The series can be described thus: THP-1 cells pyroptosis assay. It is filed as cell-based. Set-up: Seed THP-1 cells (25,000 cells/well) containing 1.0 μg/ml LPS; host or cells: THP-1 cells, LPS-primed, nigericin-stimulated. Particulars: LPS 1 μg/ml, nigericin 5 μM, resazurin read-out. Summed up:
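THP-1 cells (25,000/well) primed with 1 μg/ml LPS in serum-free RPMI, given compound (8-point half-log, 10 μM top, 0.1% DMSO) for 3 hrs, then nigericin 5 μM for 1 hr at 37° C. Viability of remaining cells read by resazurin (100 μM, 1–2 hrs) fluorescence; IC50 from 4-parameter fit.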

In series [3] the target is T1, NLRP3. The series can be described thus: Human whole blood IL1β release assay. It is filed as cell-based. Set-up: Plate out 80 μl of whole blood containing 1 μg/ml of LPS; from tissue; host or cells: human whole blood from healthy donors, LPS-primed, nigericin-stimulated. To be noted: LPS 1 μg/ml, nigericin 10 μM, IL-1β AlphaLisa, read-out: HWB IC50. Here is the method: For systemic delivery, the ability to inhibit NLRP3 when the compounds are present within the bloodstream is of great importance. For this reason, the NLRP3 inhibitory activity of a number of compounds in human whole blood was investigated in accordance with the following protocol.
Human whole blood in Li-heparin tubes was obtained from healthy donors from a volunteer donor panel. • 1. Plate out 80 μl of whole blood containing 1 μg/ml of LPS in 96-well, clear bottom cell culture plate (Corning #3585) • 2. Add […] compound (8 points half-log dilution with 10 μM top dose) or vehicle (DMSO 0.1% FAC) to the appropriate wells • 3. Incubate for 3 hrs at 37° C., 5% CO2 • 4. Add 10 μl Nigericin (Sigma #N7143) (10 μM FAC) to all wells • 5. Incubate for 1 hr at 37° C., 5 CO2 • 6. At the end of the incubation period, spin plates at 300×g for 5 mins to pellet cells and remove 20 μl of supernatant and add to 96-well v-bottom plates for […] analysis (note: these plates containing the supernatants can be stored at −80° C. to be analysed at a later date) • 7. IL-1β was measured according to the manufacturer protocol (Perkin Elmer-AlphaLisa IL-1 Kit AL220F-5000) • 8. IC50 data is fitted to anon-linear regression equation (log inhibitor vs response-variable slope 4-parameters)

T1 sequence (Q96P20 whole entry): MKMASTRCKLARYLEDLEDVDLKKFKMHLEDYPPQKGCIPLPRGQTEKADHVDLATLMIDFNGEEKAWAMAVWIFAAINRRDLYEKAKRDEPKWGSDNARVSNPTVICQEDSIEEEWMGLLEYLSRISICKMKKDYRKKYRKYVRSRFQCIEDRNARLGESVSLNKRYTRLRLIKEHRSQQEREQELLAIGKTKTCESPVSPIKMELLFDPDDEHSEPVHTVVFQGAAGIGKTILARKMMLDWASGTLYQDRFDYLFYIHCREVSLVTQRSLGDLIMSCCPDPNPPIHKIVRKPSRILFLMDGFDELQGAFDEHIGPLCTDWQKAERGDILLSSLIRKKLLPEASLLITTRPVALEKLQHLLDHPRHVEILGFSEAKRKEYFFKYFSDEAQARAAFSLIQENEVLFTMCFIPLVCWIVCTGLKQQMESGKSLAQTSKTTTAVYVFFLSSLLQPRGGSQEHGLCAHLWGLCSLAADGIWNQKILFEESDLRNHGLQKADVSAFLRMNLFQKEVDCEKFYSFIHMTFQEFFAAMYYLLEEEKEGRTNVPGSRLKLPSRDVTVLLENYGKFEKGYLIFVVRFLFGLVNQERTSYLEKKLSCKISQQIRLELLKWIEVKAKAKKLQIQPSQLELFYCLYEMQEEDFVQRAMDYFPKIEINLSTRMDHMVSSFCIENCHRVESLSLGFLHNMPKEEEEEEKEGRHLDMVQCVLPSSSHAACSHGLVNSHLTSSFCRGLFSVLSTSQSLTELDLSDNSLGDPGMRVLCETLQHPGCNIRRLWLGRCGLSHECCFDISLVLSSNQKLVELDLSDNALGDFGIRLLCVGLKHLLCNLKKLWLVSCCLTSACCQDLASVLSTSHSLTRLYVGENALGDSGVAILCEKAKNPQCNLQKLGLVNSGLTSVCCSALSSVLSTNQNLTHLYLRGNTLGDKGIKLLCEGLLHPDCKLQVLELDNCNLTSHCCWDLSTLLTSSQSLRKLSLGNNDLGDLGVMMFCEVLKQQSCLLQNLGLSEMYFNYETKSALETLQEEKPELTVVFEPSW

The AUC is the area under the concentration-time curve, a measure of exposure. High values mean high exposure, low ones low exposure. One may read the half-life as the time needed for the level to fall by half in the phase considered. Read a high half-life as slow decline. As a reminder, the IC50 is the concentration that inhibits the measured activity by half. Consider `CC(O)C(C)n1ccc(S(=O)(=O)NC(=O)Nc2c3c(cc4c2CCC4)CCC3)n1` (racemic) [Example 23, N-((1,2,3,5,6,7-Hexahydro-s-indacen-4-yl)carbamoyl)-1-(3-hydroxybutan-2-yl)-1H-pyrazole-3-sulfonamide], for which, in series [1] (intravenous, dose 1 mg/kg), the AUC worked out at 20100 ng·h/mL, the clearance was 0.8 mL/min/kg, the half-life was 2.6 h and the Vd was determined as 0.12 L/kg. In addition, the IC50 on NLRP3 [2] lay in the range of 40 to 160 nM. Besides, the half-maximal inhibitory concentration (IC50) on NLRP3 [3] is under 400 nM.

On to `CC(O)C(C)n1ccc(S(=O)(=O)NC(=O)Nc2c3c(cc4c2CCC4)CCC3)n1` (racemic) [Example 26, N-((1,2,3,5,6,7-Hexahydro-s-indacen-4-yl)carbamoyl)-1-(3-hydroxybutan-2-yl)-1H-pyrazole-3-sulfonamide], for which, in series [1] (intravenous, dose 1.74 mg/kg), the AUC is 8060 ng·h/mL, the clearance came out at 4.2 mL/min/kg, the half-life was 3.6 h and the Vd was 0.6 L/kg. In addition, the IC50 at NLRP3 [2] is 40 to 160 nM. The 50% inhibitory concentration (IC50) on NLRP3 [3] is under 400 nM.

Turning to `O=C(Nc1c2c(cc3c1CCC3)CCC2)NS(=O)(=O)c1ccn(C2CCOC2)n1` (stereo not shown) [Example 1, N-((1,2,3,5,6,7-Hexahydro-s-indacen-4-yl)carbamoyl)-1-(tetrahydrofuran-3-yl)-1H-pyrazole-3-sulfonamide], in series [1] (intravenous, dose 1 mg/kg), the AUC came out at 8620 ng·h/mL, the clearance came out at 1.9 mL/min/kg, the half-life was 3.4 h and the Vd was determined as 0.43 L/kg. For the same compound, the IC50 on NLRP3 [2] fell in the range of 160 to 640 nM. Besides, on NLRP3 [3], the IC50 is 800 to 1600 nM.

With `COCCn1ccc(S(=O)(=O)NC(=O)Nc2c3c(cc4c2CCC4)CCC3)n1` [Example 2, N-((1,2,3,5,6,7-Hexahydro-s-indacen-4-yl)carbamoyl)-1-(2-methoxyethyl)-1H-pyrazole-3-sulfonamide], in series [1] (intravenous, dose 1 mg/kg), the area under the curve (AUC) worked out at 1030 ng·h/mL, the clearance turned out to be 16.2 mL/min/kg, the half-life was 0.3 h and the Vd is 0.3 L/kg. Besides, the IC50 at NLRP3 [2] was 160 to 640 nM. Besides, the concentration for half-maximal inhibition (IC50) on NLRP3 [3] lay within 800 to 1600 nM.

On to `O=C(Nc1c2c(cc3c1CCC3)CCC2)NS(=O)(=O)c1ccn(CC2CCCO2)n1` (stereo not shown) [Example 3, N-((1,2,3,5,6,7-Hexahydro-s-indacen-4-yl)carbamoyl)-1-((tetrahydrofuran-2-yl)methyl)-1H-pyrazole-3-sulfonamide], for which, in series [1] (intravenous, dose 1 mg/kg), the exposure (AUC) stood at 3680 ng·h/mL, the clearance came out at 4.5 mL/min/kg, the half-life is 6.7 h and the Vd was 1.57 L/kg. Besides, the IC50 on NLRP3 [2] was 40 to 160 nM. Further, the IC50 at NLRP3 [3] was 800 to 1600 nM.

The CL/F is the apparent clearance, not corrected for the fraction that reaches the circulation. Broadly, the Cmax is the highest concentration seen after dosing. The term Tmax denotes the time from dosing to the highest level. By bioavailability is commonly meant the share of a dose that reaches the circulation, judged against a reference dose that is usually intravenous. Lower therefore signals poor availability. For `CC(C)(O)Cn1ccc(S(=O)(=O)NC(=O)Nc2c3c(cc4c2CCC4)CCC3)n1` [Example 10, N-((1,2,3,5,6,7-Hexahydro-s-indacen-4-yl)carbamoyl)-1-(2-hydroxy-2-methylpropyl)-1H-pyrazole-3-sulfonamide], in series [1] (intravenous, dose 1 mg/kg), the AUC was 4290 ng·h/mL, the clearance worked out at 3.9 mL/min/kg, the half-life was 2.9 h and the Vd turned out to be 0.61 L/kg. In series [1] (oral, dose 3 mg/kg), the AUC turned out to be 9660 ng·h/mL, the CL/F worked out at 5.2 mL/min/kg, the maximum concentration (Cmax) was found to be 1770 ng/mL and the Tmax was found to be 0.29 h. In series [1] (oral, dose 3 mg/kg), this compound gave a bioavailability of 75% and a half-life of 3.5 h. Also, the IC50 on NLRP3 [2] was 40 to 160 nM. Besides, on NLRP3 [3], the half-maximal inhibitory concentration (IC50) fell in the range of 400 to 800 nM.

Turning to `Cn1nc(S(=O)(=O)NC(=O)Nc2c3c(cc4c2CCC4)CCC3)cc1C(=O)N(CCO)CCO` [Example 61, 3-(N-((1,2,3,5,6,7-Hexahydro-s-indacen-4-yl)carbamoyl)sulfamoyl)-N,N-bis(2-hydroxyethyl)-1-methyl-1H-pyrazole-5-carboxamide], the figures for the IC50 at NLRP3 [2] and on NLRP3 [3] were 160 to 640 nM and under 400 nM, respectively.

For the compound `CN(CCCO)C(=O)c1cc(S(=O)(=O)NC(=O)Nc2c3c(cc4c2CCC4)CCC3)nn1C` [Example 64, 3-(N-((1,2,3,5,6,7-Hexahydro-s-indacen-4-yl)carbamoyl)sulfamoyl)-N-(3-hydroxypropyl)-N,1-dimethyl-1H-pyrazole-5-carboxamide], the IC50 on NLRP3 [2] was in the range of 160 to 640 nM; at NLRP3 [3], 1600 to 3200 nM.

With `CCN(CCO)C(=O)c1cc(S(=O)(=O)NC(=O)Nc2c3c(cc4c2CCC4)CCC3)nn1C` [Example 66, N-Ethyl-3-(N-((1,2,3,5,6,7-hexahydro-s-indacen-4-yl)carbamoyl)sulfamoyl)-N-(2-hydroxyethyl)-1-methyl-1H-pyrazole-5-carboxamide], the IC50 on NLRP3 [2] lay in the range of 160 to 640 nM; on NLRP3 [3], 800 to 1600 nM.

For `CC(C)c1cc(Cl)cc(C(C)C)c1NC(=O)NS(=O)(=O)c1cc(C(=O)N(C)CCO)n(C)n1` [Example 82, 3-(N-((4-Chloro-2,6-diisopropylphenyl)carbamoyl)sulfamoyl)-N-(2-hydroxyethyl)-N,1-dimethyl-1H-pyrazole-5-carboxamide], the results for the IC50 on NLRP3 [2] and at NLRP3 [3] were 40 to 160 nM and 800 to 1600 nM, respectively.

Take `COc1cc(-c2ccc3c(c2NC(=O)NS(=O)(=O)c2ccn(C(C)(C)CN4CC(OC)C4)n2)CCC3)ccn1` [Example 90]: the IC50 is under 40 nM on NLRP3 [2] and under 400 nM at NLRP3 [3].

With `N#Cc1cc(-c2ccc3c(c2NC(=O)NS(=O)(=O)c2ccn(C4CCOC4)n2)CCC3)ccn1` (stereo not shown) [Example 91], the IC50 on NLRP3 [2] is under 40 nM; on NLRP3 [3], under 400 nM.

On to `C[C@@H](O)Cn1ccc(S(=O)(=O)NC(=O)Nc2c(-c3ccnc(C#N)c3)ccc3c2CCC3)n1` [Example 92], for which the half-inhibitory concentration (IC50) at NLRP3 [2] was under 40 nM; at NLRP3 [3] it was under 400 nM.

On to `CC(C)(O)Cn1ccc(S(=O)(=O)NC(=O)Nc2c(-c3ccnc(C#N)c3)ccc3c2CCC3)n1` [Example 93], for which the IC50 on NLRP3 [2] was under 40 nM; on NLRP3 [3], under 400 nM.

Take `COc1cc(-c2ccc3c(c2NC(=O)NS(=O)(=O)c2ccn(C[C@@H](C)O)n2)CCC3)ccn1` [Example 94]: the IC50 at NLRP3 [2] was under 40 nM; on NLRP3 [3], under 400 nM.

As for `COc1cc(-c2ccc3c(c2NC(=O)NS(=O)(=O)c2ccn(CC(C)(C)OC)n2)CCC3)ccn1` [Example 95], the 50% inhibitory concentration (IC50) on NLRP3 [2] is under 40 nM; on NLRP3 [3] it was under 400 nM.

Consider `COc1cc(-c2ccc3c(c2NC(=O)NS(=O)(=O)c2ccn(CC(C)(C)O)n2)CCC3)ccn1` [Example 96], for which the half-maximal inhibitory concentration (IC50) at NLRP3 [2] was under 40 nM; on NLRP3 [3] it was under 400 nM.

With `COc1cc(-c2ccc3c(c2NC(=O)NS(=O)(=O)c2ccn(C4CCOC4)n2)CCC3)ccn1` (stereo not shown) [Example 97], the IC50 at NLRP3 [2] was 40 to 160 nM; on NLRP3 [3] it was under 400 nM.

Turning to `COc1cc(-c2ccc3c(c2NC(=O)NS(=O)(=O)c2cc(C4(OC)COC4)n(C)n2)CCC3)ccn1` [Example 98], the values for the concentration for half-maximal inhibition (IC50) on NLRP3 [2] and on NLRP3 [3] were under 40 nM and under 400 nM, respectively.

Turning to `C[C@@H](O)Cn1cc(S(=O)(=O)NC(=O)Nc2c3c(cc4c2CCC4)CCC3)nn1` [Example 103], the half-inhibitory concentration (IC50) at NLRP3 [2] lay in the range of 160 to 640 nM; at NLRP3 [3], 800 to 1600 nM.

Consider `O=C(Nc1c2c(cc3c1CCC3)CCC2)NS(=O)(=O)c1ccn(C[C@@H](O)CO)n1` [Example 104], for which the concentration for half-maximal inhibition (IC50) at NLRP3 [2] is 160 to 640 nM; on NLRP3 [3], 800 to 1600 nM.

As to `CC(C)(O)Cn1ccc(S(=O)(=O)NC(=O)Nc2c3c(c(F)c4c2CCC4)CCC3)n1` [Example 106], the half-inhibitory concentration (IC50) at NLRP3 [2] was under 40 nM; at NLRP3 [3], 400 to 800 nM.

With `COC1CN(CC(C)(C)n2ccc(S(=O)(=O)NC(=O)Nc3c4c(cc5c3CCC5)CCC4)n2)C1` [Example 107], the IC50 was in the range of 40 to 160 nM on NLRP3 [2] and 800 to 1600 nM on NLRP3 [3].

Values taken from patent publication US12012392B2, “Sulfonamide carboxamide compounds” (Inflazome Limited, priority 2017, dated 2024).
